Measurements published in patent US4362743A, “Antibacterial monic acid esters” (Beecham Group Limited, priority 1980, dated 1982).
Values after ≈ are worked out from the molar mass of the structure shown. Where two headings read alike, the source gives them in different places.

How the values were obtained:
[1] = system: Staph. aureus W2827; assay: Human bacteria MIC; format: cell-based; conditions: Staphylococcus aureus; Staph. aureus W2827; nutrient agar, 5% chocolated horse blood, 18 hours 37° C.; read-out: M.I.C.
Method: (§1) The values were determined by serial dilutions in nutrient agar with 5% chocolated horse blood after incubations for 18 hours at 37° C.

[2] = system: E. Coli NCT 10418; assay: Human bacteria MIC; format: cell-based; conditions: Escherichia coli; E. Coli NCT 10418; nutrient agar, 5% chocolated horse blood, 18 hours 37° C.; read-out: M.I.C.
Method: as §1

[3] = system: Strep. pneumoniae CN33; assay: Human bacteria MIC; format: cell-based; conditions: Streptococcus pneumoniae; Strep. pneumoniae CN33; nutrient agar, 5% chocolated horse blood, 18 hours 37° C.; read-out: M.I.C.
Method: as §1

[4] = system: E. coli ESS; assay: Human bacteria MIC; format: cell-based; conditions: Escherichia coli
Method: as §1

[5] = system: Ps. aeruginosa 10662; assay: Human bacteria MIC; format: cell-based; conditions: Pseudomonas aeruginosa; Ps. aeruginosa 10662; nutrient agar, 5% chocolated horse blood, 18 hours 37° C.; read-out: M.I.C.
Method: as §1

[6] = system: Neisseria catarralis 1502; assay: Human bacteria MIC; format: cell-based
Method: as §1

[7] = system: Haemophilus influenzae Q1; assay: Human bacteria MIC; format: cell-based
Method: as §1

[8] = system: P. mirabilis 889; assay: Human bacteria MIC; format: cell-based; conditions: Proteus mirabilis; P. mirabilis 889; nutrient agar, 5% chocolated horse blood, 18 hours 37° C.; read-out: M.I.C.
Method: as §1

[9] = system: Bacillus subtilis 6633; assay: Human bacteria MIC; format: cell-based
Method: as §1

[10] = system: K. aerogenes A; assay: Human bacteria MIC; format: cell-based; conditions: Klebsiella aerogenes; K. aerogenes A; nutrient agar, 5% chocolated horse blood, 18 hours 37° C.; read-out: M.I.C.
Method: as §1

[11] = system: Strep. Group C 64/848; assay: Human bacteria MIC; format: cell-based
Method: as §1

[12] = system: Staph. aureus Oxford; assay: Human bacteria MIC; format: cell-based; conditions: Staphylococcus aureus; Staph. aureus Oxford; nutrient agar, 5% chocolated horse blood, 18 hours 37° C.; read-out: M.I.C.
Method: as §1

[13] = system: Strep Group B 2788; assay: Human bacteria MIC; format: cell-based
Method: as §1

[14] = system: Strep. pyogenes R80/421; assay: Human bacteria MIC; format: cell-based; conditions: Streptococcus pyogenes; Strep. pyogenes R80/421; nutrient agar, 5% chocolated horse blood, 18 hours 37° C.; read-out: M.I.C.
Method: as §1

[15] = system: Pasteurella multocida 1633; assay: Human bacteria MIC; format: cell-based
Method: as §1

[16] = system: Staph. aureus Russell; assay: Human bacteria MIC; format: cell-based; conditions: Staphylococcus aureus; Staph. aureus Russell; nutrient agar, 5% chocolated horse blood, 18 hours 37° C.; read-out: M.I.C.
Method: as §1

[17] = system: Strep. faecalis I; assay: Human bacteria MIC; format: cell-based; conditions: Enterococcus faecalis, nutrient agar, 5% chocolated horse blood, 18 hours 37° C.
Method: as §1

[18] = system: M. bovigenitalium ATCC 14173; assay: Anti-mycoplasmal activity in vitro MIC; format: cell-based; conditions: 144 h
[19] = system: M. hyorhinis ATCC 25021; assay: Anti-mycoplasmal activity in vitro MIC; format: cell-based; conditions: Mesomycoplasma hyorhinis, ATCC25021, 144 h
[20] = system: M. hyosynoviae ATCC 25591; assay: Anti-mycoplasmal activity in vitro MIC; format: cell-based; conditions: 144 h
[21] = system: M. suipneumoniae NB12; assay: Anti-mycoplasmal activity in vitro MIC; format: cell-based; conditions: Mesomycoplasma hyopneumoniae
[22] = system: M. suipneumoniae LABER; assay: Anti-mycoplasmal activity in vitro MIC; format: cell-based; conditions: Mesomycoplasma hyopneumoniae, 144 h
[23] = Serum binding by ultrafiltration; format: in vitro ADME; conditions: pig, porcine serum, 8 mcg/ml, read-out: % bound to pig serum (converted)
Method: Serum binding was assessed by ultrafiltration of porcine serum containing compounds at 8 mcg/ml, and through an Amicon CF50A ultrafiltration cone. Separation of ultrafiltrate was achieved by centrifugation. Unbound concentrations of compound were measured in the ultrafiltrate by microbiological assay (B. subtilis ATCC 6633) against standards prepared in saline.

[24] = system: M. suipneumoniae UCD 1; assay: Anti-mycoplasmal activity in vitro MIC; format: cell-based; conditions: Mesomycoplasma hyopneumoniae, UCD1, 144 h
[25] = system: M. suipneumoniae HK (2); assay: Anti-mycoplasmal activity in vitro MIC; format: cell-based; conditions: Mesomycoplasma hyopneumoniae, 144 h
[26] = system: M. suipneumoniae PW/C/210; assay: Anti-mycoplasmal activity in vitro MIC; format: cell-based; conditions: Mesomycoplasma hyopneumoniae, 144 h
[27] = system: M. bovis NCTC 10131; assay: microbe, parasite or virus in culture; format: cell-based; conditions: NCTC10131, 144 h
[28] = system: Corneybacterium xerosis 9755; assay: Human bacteria MIC; format: cell-based; conditions: Corneybacterium xerosis 9755; nutrient agar, 5% chocolated horse blood, 18 hours 37° C.; read-out: M.I.C.
Method: as §1

[29] = E. coli ESS, nutrient agar, 5% chocolated horse blood, 18 hours 37° C., read-out: M.I.C.
[30] = Neisseria catarralis 1502, nutrient agar, 5% chocolated horse blood, 18 hours 37° C., read-out: M.I.C.
[31] = Bacillus subtilis 6633, nutrient agar, 5% chocolated horse blood, 18 hours 37° C., read-out: M.I.C.
[32] = Strep. Group C 64/848, nutrient agar, 5% chocolated horse blood, 18 hours 37° C., read-out: M.I.C.
[33] = Strep Group B 2788, nutrient agar, 5% chocolated horse blood, 18 hours 37° C., read-out: M.I.C.
[34] = Pasteurella multocida 1633, nutrient agar, 5% chocolated horse blood, 18 hours 37° C., read-out: M.I.C.
[35] = 144 h, M. suipneumoniae NB12, Friis broth, 0.9% agarose, 6 days 37° C., read-out: M.I.C.
[36] = M. suipneumoniae UCD 1, Friis broth, 0.9% agarose, 6 days 37° C., read-out: M.I.C.
[37] = M. suipneumoniae HK (2), Friis broth, 0.9% agarose, 6 days 37° C., read-out: M.I.C.

| Compound | MIC [1] [µg/mL] | MIC [2] [µg/mL] | MIC [3] [µg/mL] | MIC [4, 29] [µg/mL] | MIC [5] [µg/mL] | MIC [6, 30] [µg/mL] | MIC [8] [µg/mL] | MIC [9, 31] [µg/mL] | MIC [10] [µg/mL] | MIC [11, 32] [µg/mL] | MIC [12] [µg/mL] | MIC [13, 33] [µg/mL] | MIC [14] [µg/mL] | MIC [15, 34] [µg/mL] | MIC [16] [µg/mL] | MIC [17] [µg/mL] | MIC [18] [µg/mL] | MIC [19] [µg/mL] | fraction unbound [23] | MIC [27] [µg/mL] | also measured |
| --- | --- | --- | --- | --- | --- | --- | --- | --- | --- | --- | --- | --- | --- | --- | --- | --- | --- | --- | --- | --- | --- |
| C/C(=C\C(=O)OCCCC(=NO)c1ccccc1)C[C@@H]1OC[C@H](C[C@@H]2O[C@H]2[C@@H](C)[C@H](C)O)[C@@H](O)[C@H]1O [Example 1, 4-Hydroxyimino-4-phenylbutyl monate A] | 2.5 (≈ 4.94 µM) | > 100 | 0.5 (≈ 0.989 µM) | 2.5 (≈ 4.94 µM) | > 100 | 0.2 (≈ 0.396 µM) | > 100 | 1 (≈ 1.98 µM) | > 100 | 2.5 (≈ 4.94 µM) | 2.5 (≈ 4.94 µM) | 2.5 (≈ 4.94 µM) | 2.5 (≈ 4.94 µM) | 5 (≈ 9.89 µM) | 2.5 (≈ 4.94 µM) | > 100 | 0.025 (≈ 0.0494 µM) | 0.1 (≈ 0.198 µM) | < 0.08 | ≤ 0.01 | MIC ([7]; Haemophilus influenzae Q1, nutrient agar, 5% chocolated horse blood, 18 hours 37° C., read-out: M.I.C.): 0.5 µg/mL (≈ 0.989 µM); MIC ([20]; M. hyosynoviae ATCC 25591, Friis broth, 0.9% agarose, 6 days 37° C., read-out: M.I.C.): 0.25 µg/mL (≈ 0.494 µM); MIC [21, 35]: 0.1 µg/mL (≈ 0.198 µM); MIC ([22]; M. suipneumoniae LABER, Friis broth, 0.9% agarose, 6 days 37° C., read-out: M.I.C.): 0.1 µg/mL (≈ 0.198 µM); MIC [24, 36]: 0.25 µg/mL (≈ 0.494 µM); MIC [25, 37]: 0.25 µg/mL (≈ 0.494 µM); MIC ([26]; M. suipneumoniae PW/C/210, Friis broth, 0.9% agarose, 6 days 37° C., read-out: M.I.C.): 0.1 µg/mL (≈ 0.198 µM) |
| C/C(=C\C(=O)OCCCC(=NNC(N)=O)c1ccccc1)C[C@@H]1OC[C@H](C[C@@H]2O[C@H]2[C@@H](C)[C@H](C)O)[C@@H](O)[C@H]1O [Example 2, 4-Phenyl-4-semicarbazonobutyl monate A] | 10 (≈ 18.3 µM) | > 100 | 1 (≈ 1.83 µM) | 5 (≈ 9.13 µM) | 100 (≈ 183 µM) | 1 (≈ 1.83 µM) | > 100 | 2.5 (≈ 4.56 µM) | > 100 | 5 (≈ 9.13 µM) | 5 (≈ 9.13 µM) | 2.5 (≈ 4.56 µM) | 2.5 (≈ 4.56 µM) | 10 (≈ 18.3 µM) | 10 (≈ 18.3 µM) | > 100 | 0.1 (≈ 0.183 µM) | 0.25 (≈ 0.456 µM) | < 0.159 | 0.05 (≈ 0.0913 µM) | MIC [28]: > 100 µg/mL; MIC [20]: 0.5 µg/mL (≈ 0.913 µM); MIC ([21]; NB12, 144 h): 0.25 µg/mL (≈ 0.456 µM); MIC [22]: 0.25 µg/mL (≈ 0.456 µM); MIC [24]: 0.5 µg/mL (≈ 0.913 µM); MIC [25]: 0.5 µg/mL (≈ 0.913 µM); MIC [26]: 0.25 µg/mL (≈ 0.456 µM) |
| C/C(=C\C(=O)OC1CCC(=NO)CC1)C[C@@H]1OC[C@H](C[C@@H]2O[C@H]2[C@@H](C)[C@H](C)O)[C@@H](O)[C@H]1O (stereo partly shown) [Example 3, 4-Hydroxyiminocyclohexyl monate A] | 5 (≈ 11 µM) | > 100 | 0.5 (≈ 1.1 µM) | – | > 100 | – | > 100 | – | > 100 | – | 2.5 (≈ 5.49 µM) | – | 0.5 (≈ 1.1 µM) | – | 5 (≈ 11 µM) | 25 (≈ 54.9 µM) | 0.025 (≈ 0.0549 µM) | 0.25 (≈ 0.549 µM) | 0.355 | ≤ 0.01 | MIC ([4]; 18 h): 1 µg/mL (≈ 2.2 µM); MIC ([6]; Neisseria, 1502, 18 h): 1 µg/mL (≈ 2.2 µM); MIC ([7]; Haemophilus influenzae, Q1, 18 h): 0.25 µg/mL (≈ 0.549 µM); MIC ([9]; Bacillus subtilis, 6633, 18 h): 1 µg/mL (≈ 2.2 µM); MIC [28]: > 100 µg/mL; MIC ([11]; 18 h): 1 µg/mL (≈ 2.2 µM); MIC ([13]; 18 h): 1 µg/mL (≈ 2.2 µM); MIC ([15]; Pasteurella multocida, 1633, 18 h): 1 µg/mL (≈ 2.2 µM); MIC [20]: 0.1 µg/mL (≈ 0.22 µM); MIC [21, 35]: 0.5 µg/mL (≈ 1.1 µM); MIC [22]: 0.25 µg/mL (≈ 0.549 µM); MIC [24, 36]: 0.5 µg/mL (≈ 1.1 µM); MIC [25, 37]: 0.5 µg/mL (≈ 1.1 µM); MIC [26]: 0.25 µg/mL (≈ 0.549 µM) |
